Results: patent US12365658B2, “Benzothia(di)azepine compounds and their use as bile acid modulators” (Albireo AB, priority 2021, dated 2025)

Tested on: Caco-2 cells
Experiment: Bidirectional permeability assay (Caco-2 cells)
Format: in vitro ADME
Conditions: 10 μM in FaSSIF buffer, 120 minutes; for Permeability (Caco-2) Papp A2B: absorptive direction (A2B); for Permeability (Caco-2) Papp B2A: secretory direction (B2A)
Method: Bidirectional Permeability Assay (Caco-2 Cells)
Caco-2 cells (Evotec) were seeded at a density of 70,000 cells/well in Millicell® 24-well cell culture insert plates and maintained in an incubator (37° C., 5% CO2, 95% RH) for 21 days with media change on alternate days.
Stock solutions (10 mM) of the test compounds, atenolol (low permeability marker), propranolol (high permeability marker) and digoxin (substrate for P-gp transport pathway) were prepared in dimethylsulfoxide (DMSO). An intermediate stock solution (1 mM) was prepared by diluting 10 μL of 10 mM master stock solution with 90 μL of neat DMSO. A working stock solution (10 μM) was prepared by diluting 50 μL of 1 mM with 4950 μL of FaSSIF buffer. Post addition of compounds to the FaSSIF, samples were subjected to sonication for 2 hours, and centrifuged at 4000 RPM for 30 minutes at 37° C. The 4 mL of resultant supernatant was directly used in the assay. The final DMSO concentration in the transport experiments was 1%.
On the day of assay, Caco-2 monolayers were washed twice with transport buffer (HBSS, pH 7.4) and pre-incubated for 30 min (37° C., 5% CO2, 95% RH) in an incubator. The electrical resistance of the monolayers was measured with a Millicell®-ERS system. Monolayers with trans-epithelial electrical resistance (TEER) values greater than 350 ohm·cm^2 were selected for the assay.
The assay was conducted in absorptive direction (A2B) and secretory (B2A) directions. Transport experiments were initiated by addition of transport assay buffer (FaSSIF buffer prepared in HBSS) consisting of compounds to the donor compartment (apical chamber A-B; basolateral chamber B-A) in duplicate (n=2) wells. Drug free HBSS buffer (pH 7.4) containing 1% bovine serum albumin (BSA) was introduced to the receiver (A-B-basolateral; B-A-Apical) compartments. The volumes of apical and basolateral compartments were 0.4 and 0.8 mL, respectively. After adding dosing solution, plates were incubated in an incubator for 120 minutes at 37° C. After 120 minutes, donor and receiver samples were collected and matrix matched (1:1, 30 μL study sample+30 μL blank buffer) with the opposite buffer. Dosing samples matrix matched (1:1, 30 μL study sample+30 μL blank buffer) with the opposite buffer. Samples were processed by adding acetonitrile containing internal standard (60 μL study sample+200 μL acetonitrile containing internal standard-Tolbutamide, 500 ng/mL). Samples were vortexed and centrifuged at 4000 rpm for 10 minutes. The obtained supernatant (100 μL) was diluted with 100 μL of water and transferred to fresh 96 well plates. The concentration of compounds in the samples was analyzed by liquid chromatography tandem mass spectrometry (LC-MS/MS) method using discovery grade bio-analytical method, as applicable.
The mean apparent permeability (Papp, ×10^−6 cm/sec) of the test compounds, atenolol, propranolol and digoxin were calculated as follows:
where dq/dt=rate of transport (rate of transport of compound in the receiver compartment), C0=initial concentration in the donor compartment, A=surface area of the effective filter membrane.

Row | Permeability (Caco-2) Papp A2B | Permeability (Caco-2) Papp B2A | Structure (SMILES)
1 | 8.6 ×10⁻⁶ cm/s | 15.9 ×10⁻⁶ cm/s | CCCCC1CN(c2ccccc2)c2cc(SC)c(OCC(C)(OC)C(=O)O)cc2S(=O)(=O)N1C (single isomer, unassigned) [24, diastereomer 1]
2 | 16.3 ×10⁻⁶ cm/s | 24 ×10⁻⁶ cm/s | CCCCC1CN(c2ccccc2)c2cc(SC)c(OCC(C)(OC)C(=O)O)cc2S(=O)(=O)N1C (single isomer, unassigned) [24, diastereomer 2]
